# Results from ChEMBL document CHEMBL1201862, “PubChem BioAssay data set” (2004).
# Active and inactive are the calls of the source. Rule as the data show it, for most assays here: actives have a measured EC50 and inactives only a lower limit.
# Legend:
# Protein skinhead-1 = biological target: T1, Protein skinhead-1 (Caenorhabditis elegans, UniProt P34707); type: functional
# T1 sequence (P34707 whole entry): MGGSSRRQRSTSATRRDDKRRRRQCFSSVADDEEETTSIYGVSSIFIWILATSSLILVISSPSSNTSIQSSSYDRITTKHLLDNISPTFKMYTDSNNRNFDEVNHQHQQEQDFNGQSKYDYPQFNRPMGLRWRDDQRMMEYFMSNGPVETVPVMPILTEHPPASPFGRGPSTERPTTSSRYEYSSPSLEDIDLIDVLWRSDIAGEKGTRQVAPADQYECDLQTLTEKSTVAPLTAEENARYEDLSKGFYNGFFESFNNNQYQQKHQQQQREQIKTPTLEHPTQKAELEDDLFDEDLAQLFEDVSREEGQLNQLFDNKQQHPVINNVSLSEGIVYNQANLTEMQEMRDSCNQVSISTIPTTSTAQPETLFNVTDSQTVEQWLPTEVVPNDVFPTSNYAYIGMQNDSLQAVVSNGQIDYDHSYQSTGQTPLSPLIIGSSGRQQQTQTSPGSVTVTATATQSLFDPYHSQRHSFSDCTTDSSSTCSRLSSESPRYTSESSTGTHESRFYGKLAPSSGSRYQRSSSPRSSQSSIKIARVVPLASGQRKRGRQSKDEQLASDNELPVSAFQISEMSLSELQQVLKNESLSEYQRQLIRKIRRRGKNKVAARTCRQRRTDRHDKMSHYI
# [1] = Luminescence Cell-Based Dose Confirmation HTS to Identify Inhibitors of Platelet Dense Granule Release. [Related pubchem assays: 1663 (Primary HTS), 1678 (Summary of Project)]; type: functional
# [2] = cytotoxicity toward NIH3T3 fibroblasts, dose response, counter-screen, cell-based, ATP luminescence, mouse fibroblasts (AID 2010); type: functional;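 also: cells exposed to compound for about 90 hours before reading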
# [3] = biological target: T2, Rac GTPase-activating protein 1 (Homo sapiens, UniProt Q9H0H5); assay: MgcRacGAP GTPase-activating activity inhibitors, confirmation, biochemical, ADP Hunter fluorescence, primary and confirmatory (AID 624330); type: functional
# T2 sequence (Q9H0H5 whole entry): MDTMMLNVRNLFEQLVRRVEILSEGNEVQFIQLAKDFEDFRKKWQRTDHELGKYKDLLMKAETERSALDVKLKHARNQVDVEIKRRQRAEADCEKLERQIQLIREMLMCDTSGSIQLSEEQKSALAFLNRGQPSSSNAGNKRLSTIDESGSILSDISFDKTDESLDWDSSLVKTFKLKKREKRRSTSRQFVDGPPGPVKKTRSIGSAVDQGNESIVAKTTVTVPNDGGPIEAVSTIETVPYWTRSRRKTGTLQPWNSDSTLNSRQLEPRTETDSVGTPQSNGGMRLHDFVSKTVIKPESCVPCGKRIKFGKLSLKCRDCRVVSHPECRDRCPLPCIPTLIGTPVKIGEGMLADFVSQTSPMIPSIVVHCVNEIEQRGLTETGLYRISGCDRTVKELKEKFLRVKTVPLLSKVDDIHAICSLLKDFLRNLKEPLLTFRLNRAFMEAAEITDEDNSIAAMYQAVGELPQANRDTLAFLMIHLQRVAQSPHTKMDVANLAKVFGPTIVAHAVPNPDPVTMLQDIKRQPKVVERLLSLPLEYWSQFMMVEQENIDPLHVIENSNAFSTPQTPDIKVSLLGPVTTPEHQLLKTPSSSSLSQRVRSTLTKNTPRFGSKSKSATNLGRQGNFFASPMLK
# [4] = inhibitors of intracellular T. cruzi replication, confirmation, NIH3T3 host cells, beta-gal luminescence (AID 2044); type: functional, cell-based;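 also: intracellular parasites grown in NIH/3T3 mouse fibroblasts as host cells; luminescent beta-galactosidase reporter signal from transgenic T. cruzi replicating inside host cells; inhibitors lower the luminescence signal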
# [5] = Luminescence Cell-Based Dose Response HTS to Identify Activators of Luciferase Translation or Activity in H4 […] Cells. [Related pubchem assays: 1829 (Project Summary), 1814 (Primary HTS)]; type: functional
# H4 = assay: Luminescence Cell-Based Dose Response HTS to Identify Activators of 5'UTR Stem-Loop Driven Prion Protein mRNA Translation in H4 Neuroglioblastoma Cells. [Related pubchem assays: 1829 (Project Summary), 1814 (Primary HTS)]; type: functional; settings: Homo sapiens
# [6] = Luminescence Cell-Based Dose Confirmation HTS to Identify Activators of 5'UTR Stem-Loop Driven Alpha-Synuclein mRNA Translation in H4 Neuroglioblastoma Cells. [Related pubchem assays: 1829 (Project Summary), 1814 (Primary HTS)]; type: functional
# [7] = biological target: Luciferin 4-monooxygenase (Photinus pyralis, UniProt P08659); assay: firefly luciferase enzyme inhibitors, dose response, biochemical, luminescence (AID 1891)
# [8] = inhibitors of firefly luciferase expression or activity, dose response, H4 neuroglioma cells, luminescence (AID 1990); type: functional, cell-based
# [9] = Luminescence Cell-Based Dose Response HTS to Identify Inhibitors of 5'UTR Stem-Loop Driven Prion Protein mRNA Translation in H4 Neuroglioblastoma Cells. [Related pubchem assays: 1827 (Project Summary), 1813 (Primary HTS)]; type: functional
# [10] = inhibitors of SNCA 5'UTR-driven reporter translation, confirmation, H4 neuroglioma cells, luminescence (AID 1988); type: functional, cell-based
# [11] = NIH-3T3 fibroblast cytotoxicity, dose response, cytotoxicity control, cell-based, fluorescence, Alamar Blue, secondary assay (AID 2327); type: functional;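 also: NIH-3T3 mouse fibroblasts cultured with fluconazole at 8 µg/mL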
# Nonstructural protein 1 = Nonstructural protein 1 (Influenza A virus, UniProt Q194T2); type: functional, Influenza A virus (A/California/07/2009(H1N1))
# [12] = HEp-2 cell cytotoxicity, dose response, cytotoxicity control for RSV inhibitor project, HTS (AID 2410); type: functional; settings: human respiratory syncytial virus
smiles,measurement,setting,value
CN1CCc2c(sc3c2C(=O)NC(c2ccccc2)N3)C1 (centres undefined),IC50,Protein skinhead-1,> 100 µM (inactive)
Cc1nc(S)c(C#N)c(C)c1CCC#N,EC50,[1],> 112 µM (not active)
CC(C(=O)N(C)Cc1ccccc1)N1CCN(C/C=C/c2ccccc2)CC1 (centres undefined),EC50,[2],> 30 µM (not active)
same,IC50,[3],80.2 µM (active)
same,EC50,[4],164 nM (active)
COc1ccc(/C=N/NC(=O)CN2CCCCCCC2)c(C)c1C,IC50,[3],139 µM (active)
O=C(Nc1ccccc1Oc1ccccc1)c1cccs1,IC50,Protein skinhead-1,> 100 µM (inactive)
Cc1nn(-c2ccccc2)c(O)c1/C=N/N(C)c1ccccc1,IC50,[3],19.3 µM (active)
CC(Sc1nncn1C)C(=O)Nc1nnc(-c2ccccc2)s1 (centres undefined),EC50,[5],25 µM (active)
same,EC50,H4,17.5 µM (active)
same,EC50,[6],19.1 µM (active)
O=C(Nc1ccccc1)c1cnc2ccccc2n1,EC50,[7],> 112 µM (not active)
same,EC50,[1],> 112 µM (not active)
Cc1cc(S(=O)(=O)N2CCCC2)ccc1OCC(=O)N1CCOCC1,EC50,[8],> 120 µM (not active)
same,EC50,[9],> 120 µM (not active)
same,EC50,[10],> 120 µM (not active)
Nc1ccc2c(c1)[nH]c(=O)c1cc(N)ccc12,IC50,[3],10.9 µM (active)
COc1ccc(C(c2sc3nc(C)nn3c2O)N2CCCCC2)cc1 (centres undefined),EC50,[7],> 112 µM (not active)
same,EC50,[1],> 112 µM (not active)
CSc1nc(N(C)NC(=O)c2ccc(F)cc2)c2ccccc2n1,EC50,[8],10.6 µM (active)
same,EC50,[9],0.258 µM (active)
same,EC50,[10],< 0.195 µM (active)
NS(=O)(=O)c1ccc(Nc2nc(-c3ccc(O)cc3)cs2)cc1,IC50,[3],19.9 µM (active)
CONC=NC(=O)NOCc1ccc(Cl)cc1Cl,EC50,[7],> 112 µM (not active)
same,EC50,[1],> 112 µM (not active)
Nc1ccc(N2CCOCC2)c(Cl)c1,IC50,[3],38.2 µM (active)
NC(Cc1nc(-c2ccc(Br)cc2)cs1)=NO,EC50,[11],> 150 µM (inactive)
Cc1ccc(S(=O)(=O)NCC2CCC(C(=O)NCc3ccc4c(c3)OCO4)CC2)cc1 (centres undefined),EC50,[7],> 112 µM (not active)
same,EC50,[1],> 112 µM (not active)
CCCn1c(N)c(C(c2ccc(OC)cc2)N2CCN(c3ccccc3)CC2)c(=O)[nH]c1=O (centres undefined),IC50,Protein skinhead-1,> 100 µM (inactive)
Cc1nonc1C(=O)N/N=C/c1ccc(O)cc1,EC50,[7],0.916 µM (active)
same,IC50,[3],95.6 µM (active)
same,EC50,[1],0.172 µM (active)
CCOC(=O)C1(C)C(N=Nc2ccc(Cl)cc2)=C(O)C(=O)N1c1ccccc1 (centres undefined),IC50,Protein skinhead-1,> 100 µM (inactive)
CCN(CC(=O)Nc1cc(Cl)ccc1OC)CC(=O)NC1CCS(=O)(=O)C1 (centres undefined),IC50,[3],95.7 µM (active)
COc1ccc2nc(NNC(=O)c3cc(=O)c4ccccc4o3)sc2c1,EC50,[5],24.4 µM (active)
same,EC50,H4,17.4 µM (active)
same,EC50,[6],40.6 µM (active)
C/C(=C\c1ccco1)CN1CCC(N2CCC(C(=O)N3CCOCC3)CC2)CC1,EC50,[5],15.5 µM (active)
same,EC50,H4,> 120 µM (not active)
same,EC50,[6],11.2 µM (active)
Cc1ccc(C(=O)CC(=O)c2ccccc2)cc1,EC50,[5],1.75 µM (active)
same,EC50,H4,> 120 µM (not active)
same,EC50,[6],5.35 µM (active)
COc1ccc(-c2n[nH]c(S)n2)cc1,EC50,[1],> 112 µM (not active)
CC(=O)Nc1cccc(Oc2cc(C#N)c(C#N)cc2N2CCCCCC2)c1,EC50,[8],14.6 µM (active)
same,EC50,[9],> 120 µM (not active)
same,EC50,[10],> 120 µM (not active)
Fc1ccc(Nc2cccc3nccnc23)cc1,IC50,Protein skinhead-1,34.1 µM (active)
CN(C)c1ccc(C=NN2CCCCCC2)cc1,IC50,Nonstructural protein 1,48.1 µM (active)
O=C1C[C@H]2[C@H](CO)[C@@H](OC(=O)c3ccc(-c4ccccc4)cc3)C[C@H]2O1,EC50,[5],16.9 µM (active)
same,EC50,H4,69.8 µM (active)
same,EC50,[6],12.8 µM (active)
N#Cc1c(O)nsc1Nc1ccc(Cl)cc1,IC50,[3],79.9 µM (active)
Cc1cccc(N2CCN(S(=O)(=O)c3ccc4c(c3)C(C)(C)C(=O)N4C)CC2C)c1 (centres undefined),EC50,[7],> 112 µM (not active)
same,EC50,[1],> 112 µM (not active)
C/C=C/c1ccc(OCCCCN2CCN(CC)CC2)c(OC)c1,IC50,[3],82 µM (active)
N#CC1(Nc2ccc(-c3ccc(NC4(C#N)CCCC4)cc3)cc2)CCCC1,IC50,[3],10.3 µM (active)
Cc1ccccc1NC(=O)CSc1nn2c(=O)c(C)nnc2s1,IC50,Nonstructural protein 1,10.5 µM (active)
O=C1c2ccccc2-c2onc3c(N4CCN(CCO)CC4)cc(N4CCN(C(=O)c5ccco5)CC4)c1c23,IC50,Nonstructural protein 1,9.93 µM (active)
CC(C)CNc1nc(N)c([N+](=O)[O-])c(NCc2ccccc2)n1,EC50,[8],16.3 µM (active)
same,EC50,[9],> 120 µM (not active)
same,EC50,[10],22.7 µM (active)
CCCCn1c(N)c(N(CCC(C)C)C(=O)C2CC(=O)N(c3ccc(OC)cc3OC)C2)c(=O)[nH]c1=O (centres undefined),EC50,[7],> 112 µM (not active)
same,EC50,[1],> 112 µM (not active)
O=C(CSc1nnc2ccccn12)N1CCc2ccccc2C1,EC50,[5],38.9 µM (active)
same,EC50,H4,78 µM (active)
same,EC50,[6],13.1 µM (active)
COc1cc2sc3cc(NCc4ccc(C)o4)ccc3c(=O)c2cc1OC,IC50,Protein skinhead-1,> 100 µM (inactive)
COc1ccc(C2CC(c3ccc4ccccc4c3)=NN2C(=O)CN2CCC(C(N)=O)CC2)cc1 (centres undefined),EC50,[5],18.1 µM (active)
same,EC50,H4,16.5 µM (active)
same,EC50,[6],15.6 µM (active)
COc1ccccc1NC(=O)Nc1nc(CC(=O)Nc2ccc(N(C)C)cc2)cs1,IC50,Nonstructural protein 1,26.9 µM (active)
Cn1ncc2cc(NC(=S)NC(=O)c3ccccc3)ccc21,EC50,[5],21 µM (active)
same,EC50,H4,83 µM (active)
same,EC50,[6],13.8 µM (active)
O=C(NCCOc1ccc(Cl)cc1)c1ccc2ccccc2n1,CC50,[12],20.9 µM (active)
same,IC50,Protein skinhead-1,> 100 µM (inactive)
FCCCOc1ccc(-c2nccc(-c3ccccn3)n2)cc1,IC50,Protein skinhead-1,17.9 µM (active)
OC1CN=C2C=CC=CN2C1 (centres undefined),EC50,[7],> 112 µM (not active)
same,EC50,[1],> 112 µM (not active)
O=C(Sc1ccc(Cl)cc1)c1ccccn1,IC50,Protein skinhead-1,44.5 µM (active)
COc1cc(NC(=O)CN2C(=O)C(c3ccccc3)=NC23CCCCCC3)cc(OC)c1,EC50,[7],> 112 µM (not active)
same,EC50,[1],> 112 µM (not active)
Cc1cc(C)cc(OCc2ccc(C(=O)N3N=C(C(F)F)CC3(O)C(F)F)o2)c1 (centres undefined),EC50,[11],120 µM (active)
CCCc1ccc(Oc2cc(Cl)nc(N)n2)cc1,EC50,[5],11.8 µM (active)
same,EC50,H4,72 µM (active)
same,EC50,[6],8.77 µM (active)
CC(C)c1nnc(NC(=O)COc2ccccc2[N+](=O)[O-])s1,EC50,[5],67 µM (active)
same,EC50,H4,13.6 µM (active)
same,EC50,[6],0.112 µM (active)
c1ccc(NCc2nc(-c3ccccc3)no2)cc1,EC50,[5],21.4 µM (active)
same,EC50,H4,15.8 µM (active)
same,EC50,[6],3.25 µM (active)
